Tests used:
Type in all cases: cell-based, human
BE1 stem cells = assay: Small molecule screen and dose-response in 384-well plates, BE1 stem cells
[1] = test system: normal esophageal stem cells; assay: Small molecule screen and dose-response in 384-well plates, normal esophageal stem cells
[2] = test system: BE1 and normal esophageal stem cells; assay: Co-cultures of BE1 and normal esophageal stem cells; conditions: in combination with ponatinib
Excerpt: FIGS. 6a-g. Drug development for precursor lesions. FIG. 6a. […] FIG. 6b. […] FIG. 6c. Dose-response curves of candidate drug (CEP-18770). FIG. 6d. […] FIG. 6e. […] FIG. 6f. […] FIG. 6g.
Small molecule screens against precursor stem cells. Given that Barrett's esophagus is an essential precursor for EAC, the inventors adapted BE1 stem cells to high-throughput screening platforms to identify proof-of-concept leads for preemptive therapies.

IC50 (BE1 stem cells; in combination with ponatinib, read-out: IC50 for eliminating BE1 stem cells) [nM] | Structure (SMILES) | Growth of BE1 stem cells (BE1 stem cells; single agent) | Growth of normal esophageal stem cells ([1]; single agent, screens of stem cells from eight cases) | Effect on normal esophageal stem cells in co-culture ([2]; co-culture with BE1 stem cells) | Effect on BE1 cells in co-culture ([2]; co-culture with normal esophageal stem cells) | Impact on normal esophageal stem cells ([1]; in combination with ponatinib)
– | Cc1ccc(C(=O)Nc2ccc(CN3CCN(C)CC3)c(C(F)(F)F)c2)cc1C#Cc1cnc2cccnn12 [ponatinib, 3-[2-(Imidazo[1,2-b]pyridazin-3-yl)ethynyl]-4-methyl-N-[4-(4-methylpiperazin-1-ylmethyl)-3-(trifluoromethyl)phenyl]benzamide] | marginally inhibiting the growth | best of these esophageal stem cell “promoters” | – | – | –
< 1 | CN[C@@H](C)C(=O)N[C@H]1CCCC[C@H]2CC[C@@H](C(=O)N[C@@H](c3ccccc3)c3cn(CCCCc4ccc(CCCCn5cc([C@@H](NC(=O)[C@@H]6CC[C@@H]7CCCC[C@H](NC(=O)[C@H](C)NC)C(=O)N76)c6ccccc6)nn5)cc4)nn3)N2C1=O [SM-164] | – | – | promotes the expansion | selectively eliminates the BE1 cells | minimal impact

Reference: US20250281624A1, “METHODS AND COMPOSITIONS FOR TREATING CHRONIC INFLAMMATORY INJURY, METAPLASIA, DYSPLASIA AND CANCERS OF EPITHELIAL TISSUES” (University of Houston System, priority 2021, published 2025)
